# Source: patent publication EP0326134A1, “4-Amino-2,3-disubstituted-6,7-dihydro-5H-1-pyridine derivatives, process for their preparation and medicaments containing them” (NAUCHNO-ISSLEDOVATELSKY INSTITUT TEKHNOLOGII I BEZOPASNOSTI …, priority 1988, dated 1989)
# Legend:
# [1] = system: isolierten Präparaten des rechten Vorhofs von Kaninchen; test: Antiarrhythmic effect on isolated right atrium preparations (microelectrodes: AP duration, refractory period R, e/R); conditions: isolated right atrium of rabbit, microelectrodes
# Source text: (§1) Die antiarrhythmische Wirkung der erfindungsgemäßen Verbindungen wurde in zwei Versuchsserien untersucht, und zwar an isolierten Präparaten des rechten Vorhofs von Kaninchen und mit Hilfe des Calciumchlorid-Arrhythmie-Modells an Ratten. In den Versuchen an den isolierten Präparaten des rechten Vorhofs wurden mit Hilfe von Mikroelektroden die Dauer des AP sowie der Refraktärzeit (R) und die maximale Hemmung (e) und der Parameter (e/R) untersucht, durch den die Anfälligkeit des Myokards gegenüber der Entstehung von Arrhythmien gekennzeichnet wird. In den Versuchen an Ratten wurden diesen Calciumchlorid in einer Dosierung von 250 mg/kg injiziert. Registriert wurden das Vorliegen von Kammerflimmern und die Lebensdauer der Tiere. Sämtliche erfindungsgemäßen Verbindungen üben eine mäßige antiarrhythmische Wirkung aus. Sie steigern die Refraktärzeit des Muskels und des AP um 35 bis 145 % und verringern gleichzeitig die Anfälligkeit des Myokards, ausgedrückt durch den Parameter e/R um 10 bis 80 % (s. Tabelle 4). In bezug auf diese Wirkung waren die Salze der bicyclischen Basen wirksamer als Amyridin. Bezüglich des Vermögens, die Tiere vor Kammerflimmern und vor dem Tod nach Verabreichung von 250 mg/kg Calciumchlorid zu schützen, waren diese Verbindungen ebenfalls am stärksten wirksam. Bei Verwendung des Calciumchlorid-Arrhythmie-Modells waren viele erfindungsgemäßen Verbindungen stärker wirksam als das klassische Antiarrhythmikum Chinidin (s. M.D. Ma s kovskij, Lekarstvennye sredstva, Bd. 1, S. 401, Moskau, Medicina, 1984).
# [2] = Acute toxicity, single intraperitoneal injection, probit analysis (LD50); format: in vivo, Mäusen; conditions: mice, i.p.
# Source text: Ihre akute Toxizität wurde an Mäusen (einmalige intraperitoneale Injektion) nach der Methode der Probit-Analyse nach Zichtfield, Wilcoxon, t949 untersucht. In Tabelle 2 sind die Parameter der akuten Toxizität (LDso) angegeben, die eine mäßige Toxizität der erfindungsgemäßen Verbindungen belegen.
# [3] = system: Calciumchlorid-Arrhythmie-Modells; test: Calcium chloride arrhythmia model (250 mg/kg): ventricular fibrillation, survival; format: in vivo, Ratten; conditions: rats, calcium chloride 250 mg/kg
# Source text: as §1
# [4] = Side effects and CNS/behaviour: tremor (TD50), sedative and m-cholinomimetic effects; format: in vivo; conditions: for Verhältnis TD50 zu ED50: ED50 = dose blocking the effect of Skopolamin in 50 % of the animals (passive avoidance, mice)
# Source text: Von Interesse ist der Einfluß der erfindungsgemäßen Verbindungen auf das ZNS und das Verhalten der Tiere.
# [5] = system: Orientierungsaktivität; test: Influence on orientation activity; format: in vivo, Mäusen; conditions: mice
# Source text: Von Interesse ist der Einfluß der erfindungsgemäßen Verbindungen auf das ZNS und das Verhalten der Tiere. Alle Verbindungen zeigen eine Kombination von stimulierenden und sedativen Eigenschaften und bei höheren Dosen auch eine m-cholinomimetische Wirkung, wobei Tremor, Speichelfluß und Diarrhoe ausgelöst werden.
# [6] = system: durch Skopolamin hervorgerufene Amnesie; test: Dark avoidance assay (passive avoidance), scopolamine-induced amnesia; format: in vivo, Mäusen; conditions: mice, compound s.c. 5 min before learning, Skopolamin i.p. 30 min before
# Method: Die Mäuse wurden dabei in den hellen Abschnitt der Kammer gegeben, wonach die Latenzzeit für den Übertritt in die dunkle Kammer, in der die Tiere einem Stromschlag von 0,5 mA ausgesetzt waren, registriert wurde. Danach erhöhte sich die Latenzzeit für den Übertritt in den dunklen Abschnitt und verringerte sich die Aufenthaltsdauer. 30 Minuten vor dem Versuch wurden den Mäusen i.p. […] Gedächtnisstörungen hervorrufendes Skopolamin als Cholinblocker injiziert. Die erfindungsgemäßen Verbindungen wurden s.c. 5 Minuten vor dem Lernvorgang injiziert. Das Skopolamin verkürzt die Latenzzeit für den Übertritt in die dunkle Kammer, die erfindungsgemäßen Verbindungen stellen jedoch die Latenzzeitwerte wie bei der Kontrollgruppe wieder her oder bedingen ein geringfügiges Überschreiten dieser Werte (siehe Tabelle 2). Gleichzeitig wird die Aufenthaltsdauer der Tiere im dunklen Abschnitt der Kammer auf 36 bis 45 Hundertstel des Ausgangswerts verringert.
# [7] = system: Zahl der Krämpfe; test: Writhing test (intraperitoneal acetic acid); format: in vivo, Mäusen; conditions: male mice
# Source text: Die analgetische Wirkung der erfindungsgemäßen Verbindungen wurde an männlichen Mäusen anhand des "Krampf"-Tests (Writhing-Tests) unter intraperitonealer Injizierung von Essigsäure und des Hot-plate-Tests untersucht. Im ersten Falle wurde die analgetische Wirkung der Verbindungen anhand der prozentualen Verringerung der Zahl der Krämpfe ermittelt. Beim zweiten Test wurde die Schwelle der Schmerzempfindlichkeit (Ablecken der Pfoten) bestimmt. Die stärkste analgetische Wirkung der erfindungsgemäßen Verbindungen zeigte sich beim "Krampf"-Test. Dabei übertrafen die Salze der bicyclischen Basen Amyridin, aber nicht alle erfindungsgemäßen Verbindungen waren schwächer als Morphin (s. Tabelle 4).
# [8] = system: Nerven-Muskel-Präparat von Mäusen (n.peroneus-m.extensor digitorum longus); test: Neuromuscular transmission in isolated nerve-muscle preparation (EPP, minEPP); conditions: for Stimulierung der Nerven-Muskelübertragung, in % der Amplitude: EPP: EPP = Endplattenpotential
# Source text: Der Einfluß der Stoffe auf die Nerven-Muskei-Übertragung wurde am isolierten Nerven-Muskel-Präparat von Mäusen (n.peroneus-m.extensor digitorum longus) (s. Bhattacharyya B. et al. "Neuromuscular blocking action of two hemicholinium-3 analogs" Europ. J. Pharmac. 146, 155-165 /1988/) untersucht, das von Lilly-Lösung perfundiert wurde, durch die man ein Gemisch von 02 und C02 leitete. […] Das Endplattenpotential (EPP) und das Endplattenminiaturpotential (minEPP) wurden mit Hilfe eines Magnetografen aufgezeichnet und danach mit dem Computer ausgewertet. Ermittelt wurden die Frequenz (f), die Amplitude (A) und die Dauer (t) der minEPP und der EPP (s. Tabelle 2).
# [9] = target: T1, Acetylcholinesterase menschlicher Erythrozyten (Homo sapiens, UniProt P22303); test: Acetylcholinesterase inhibition, spectrophotometric; format: biochemical; conditions: Acetylcholinesteraseinhibierung bei menschlichen Erythrozyten IK, (Mol), human erythrocyte enzyme
# T1 construct: Acetylcholin-esteraseinhi-bierung bei menschlichen Erythrozyten; from tissue; host or cells: human erythrocytes
# T1 sequence (P22303 other isoform, or with tags, fused parts or gaps): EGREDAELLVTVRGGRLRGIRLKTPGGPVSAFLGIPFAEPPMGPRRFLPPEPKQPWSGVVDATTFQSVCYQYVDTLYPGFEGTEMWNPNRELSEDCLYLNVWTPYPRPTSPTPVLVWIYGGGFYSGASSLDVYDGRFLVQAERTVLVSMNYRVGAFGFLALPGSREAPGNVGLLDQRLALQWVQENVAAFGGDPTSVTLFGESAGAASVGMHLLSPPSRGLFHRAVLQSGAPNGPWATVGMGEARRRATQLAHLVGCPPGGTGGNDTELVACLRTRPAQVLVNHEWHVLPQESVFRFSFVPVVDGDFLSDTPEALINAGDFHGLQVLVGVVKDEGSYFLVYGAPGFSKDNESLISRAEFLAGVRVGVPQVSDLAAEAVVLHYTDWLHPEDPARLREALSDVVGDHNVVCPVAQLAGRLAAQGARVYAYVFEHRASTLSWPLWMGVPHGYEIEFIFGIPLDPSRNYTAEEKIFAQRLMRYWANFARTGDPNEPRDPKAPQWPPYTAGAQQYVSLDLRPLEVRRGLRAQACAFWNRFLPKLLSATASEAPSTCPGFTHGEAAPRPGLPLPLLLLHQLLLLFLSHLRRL
# Source text: Untersucht wurden die Wirkmechanismen der erfindungsgemäßen Verbindungen: • 1. Die Wirkung auf Acetylcholinesterase menschlicher Erythrozyten auf spektrofotometrischem Wege. • 2.
# [10] = system: Wirkung von Hexenal; test: Influence on the effect of Hexenal; format: in vivo, Mäusen; conditions: mice
# [11] = toxic dose causing tremor in 50 % of the animals
Structure (SMILES),"Antiarrhythmische Wirkung: Verlängerung d. Refraktärzeit (R), in % [1] [%]",LD50 [2] [mg/kg],"Antiarrhythmische Wirkung: Verlängerung d. Lebensdauer von Ratten an Hand des CaCl2-Arrhythmie-Modells, in % [3] [%]",Verhältnis TD50 zu ED50 [4],"TD50 (Tremor) [4, 11]","Änderung der Orientierungsaktivität, in % [5] [%]","Einfluß auf das Gedächtnis: Zahl der Tiere in %, bei denen die Skopolaminwirkung aufgehoben wurde [6] [%]","Analgetische Wirkung: Abnahme d. Zahl der ""Krämpfe"" bei Mäusen, in % [7] [%]","Stimulierung der Nerven-Muskelübertragung, in % der Amplitude: EPP [8] [%]","Stimulierung der Nerven-Muskelübertragung, in % der Amplitude: minEPP [8] [%]",Ki [9] [nM],"Änderung der Dauer der Seitenlage, in %: Hexenal 60 mg/kg [10]","TD50 ([4]; in vivo, toxic dose causing tremor in 50 % of the animals) [mg/kg]"
Cc1nc2c(c(N)c1C)CCC2 [Verbindung 14],100,17,90,"8,2",9 mg/kg,-7,70,50,30,62,350,+15%,–
Cc1nc2c(c(N)c1C)CCC2 [Verbindung 6],100,35,130,10,–,-20,60,70,35,80,400,+20%,10
Cc1nc2c(c(N)c1C)CCC2 [Verbindung 2],130,15,160,"12,5",5 mg/kg,-15,75,70,45,85,48,+35%,–
Cc1nc2c(c(N)c1C)CCC2 [Verbindung 4],90,15,180,11,"5,5 mg/kg",0,70,80,40,85,240,0%,–
Cc1nc2c(c(N)c1C)CCC2 [Verbindung 13],120,18,100,"8,5",8 mg/kg,-10,65,60,35,72,450,+25%,–
Cc1nc2c(c(N)c1C)CCC2 [Verbindung 9],110,15,140,7,7 mg/kg,-20,70,70,40,80,251,+30%,–
Cc1nc2c(c(N)c1C)CCC2 [Verbindung 15],90,16,110,"6,8",7 mg/kg,-15,72,65,40,75,650,+30%,–
Cc1nc2c(c(N)c1C)CCC2 [Verbindung 16],80,21,70,"6,6",10 mg/kg,-10,75,50,42,78,580,+22%,–
